Article PMC2151269, “Broad phase II and pharmacokinetic study of methoxy-morpholino doxorubicin (FCE 23762-MMRDX) in non-small-cell lung cancer, renal cancer and other solid tumour patients” (British Journal of Cancer, 1998)
Where “and” joins values, the source holds several entries; their conditions need not be identical. Identical values can stand only once.

What was measured:
[1] = Leucocyte (cellular) drug levels 2 and 24 h after injection; assay type: in vivo, human; settings: for Leucocyte MMRDX levels, median: n = 6, per l cell volume
Description: (§1) British Jourmal of Cancer (1998) 77(1), 139-146 ? 1998 Cancer Research Campaign Broad phase 11 and pharmacokinetic study of methoxy-morpholino doxorubicin (FCE 23762-MMRDX) in non-small-cell lung cancer, renal cancer and other solid tumour patients M Bakker', JP Droz2, AR Hanauske3, J Verweij4, AT van Oosterom5, HJM Groen', MA Pacciarini6, L Domenigoni6, F van Weissenbruch', E Pianezzola6 and EGE de Vries' 'University Hospital Groningen, The Netherlands; 2Centre L6on Berard, Lyon, France; 3Med. […] Patients received a maximum of six cycles. […] Limitations of the clinical value of anthracyclines are their toxicity profile, especially irreversible, dose-related cardiotoxicity, and intrinsic or acquired tumour resis- tance. Various mechanisms play a role in tumour cell resistance to anthracyclines, including overexpression of drug efflux pumps such as P-glycoprotein, decreased levels of the target enzyme topoisomerase II, and an increase in cellular detoxifying capacity (Kaye and Merry, 1985; Deffie et al, 1989; De Jong et al, 1990; Ford and Hait, 1990; Meijer et al, 1990; Zaman et al, 1994). The morpholinyl anthracyclines have been developed in the course of research aimed at identifying new anthracyclines with at least partially novel modes of action in addition to activity against resis- tant tumours (Acton et al, 1984). […] Box 30.001, 9700 RB Groningen, The Netherlands (Figure 1).

[2] = Plasma pharmacokinetics, cycle 1 (HPLC with fluorescence detection); assay type: in vivo, human
Description: as §1

[3] = tested on: metastatic or unresectable solid tumour patients; test: Haematological toxicity (CTC grading, blood cell counts) in broad phase II study; assay type: in vivo, human; settings: for Cycles (%) with anaemia / Cycles (%) with leucopenia / Cycles (%) with neutropenia / Cycles (%) with thrombocytopenia: n = 126 cycles; for Median platelet nadir: 26 patients who received at least three cycles
Description: as §1

[4] = tested on: NSCLC, renal cell cancer, head and neck cancer, cervix carcinoma, ACUP; test: Tumour response according to WHO criteria; assay type: in vivo, human
Description: as §1

solid tumour patients = tested on: solid tumour patients; set-up: method as in Vasey et al, 1995; settings: i.v. bolus every 3 weeks, phase I study; ref Vasey et al, 1995; cited from earlier work
[5] = Urinary excretion up to 96 h; assay type: in vivo, human
Description: as §1

[6] = tested on: solid tumours in animal models; set-up: method as in Grandi et al, 1990; Ripamonti et al, 1992; settings: similar activity by intraperitoneal, i.v. or oral route; ref Grandi et al, 1990; Ripamonti et al, 1992; cited from earlier work
[7] = tested on: metastatic or unresectable solid tumour patients; test: Non-haematological toxicity (CTC grading) in broad phase II study; assay type: in vivo, human; settings: for Percentage of cycles with alopecia / Percentage of cycles with diarrhoea / Percentage of cycles with fatigue/malaise / Percentage of cycles with liver toxicity, ALAT / Percentage of cycles with liver toxicity, ASAT / Percentage of cycles with nausea / Percentage of cycles with stomatitis / Percentage of cycles with vomiting / Percentage of cycles with liver toxicity, bilirubin: 132 evaluable cycles
Description: as §1

[8] = tested on: left ventricular ejection fraction (LVEF); test: Cardiac toxicity: LVEF by MUGA scan or echocardiography; assay type: in vivo, human
Description: as §1

[9] = plasma, three-compartmental model, first cycle, 11 patients, 1.5 mg m-2 i.v.
[10] = 132 cycles, 48 patients, 1.5 mg m-2 i.v. bolus every 4 weeks
[11] = CTC Grade I, 1.5 mg m-2 i.v. bolus every 4 weeks
[12] = CTC Grade II, 1.5 mg m-2 i.v. bolus every 4 weeks
[13] = CTC Grade III, 1.5 mg m-2 i.v. bolus every 4 weeks
[14] = CTC Grade IV, 1.5 mg m-2 i.v. bolus every 4 weeks
[15] = out of 131 cycles, despite intensive prophylactic antiemetic treatment

13-dihydro-3'-deamino-3'-[2(S)-methoxy-4-morpholinyl] doxorubicin [13-dihydro metabolite]
Intracellular levels as % of total MMRDX cellular levels ([1]; leucocytes): ≤ 5%

COc1cccc2c1C(=O)c1c(O)c3c(c(O)c1C2=O)C[C@@](O)(C(=O)CO)C[C@@H]3O[C@H]1C[C@H](N2CCO[C@H](OC)C2)[C@H](O)[C@H](C)O1 [MMRDX, methoxymorpholino-doxorubicin]
Mean leucocyte concentration relative to corresponding plasma concentration ([1]; 2 h after infusion): 650 fold | Leucocyte MMRDX levels, median ([1]; 2 h after infusion): 414 µg/L | Mean leucocyte concentration relative to corresponding plasma concentration ([1]; 24 h after infusion): 400 fold | Leucocyte MMRDX levels, median ([1]; 24 h after infusion): 174 µg/L | Terminal half-life relative to epirubicin t1/2,z ([2]; epirubicin value ref Camaggi et al, 1988): 1.6 fold | Interindividual coefficient of variation ([2]; on the basis of AUC calculated up to infinite time): about 20% | Plasma clearance, mean ± s.d. ([2]; plasma, 11 patients, 1.5 mg m-2 i.v.): 37.2 +/- 7.3 l h-1 m-2 | AUC0-infinity, mean ± s.d. ([2]; plasma, n = 11, 1.5 mg m-2 i.v., linear trapezoidal rule): 20.4 ± 6.2 ng·h/mL | Half-life of the first phase ([2]; plasma, three-compartmental model, 11 patients, 1.5 mg m-2 i.v.): 4 min | t1/2,beta (second phase), mean ± s.d. [2, 9]: 2.4 h | t1/2,gamma (third phase), mean ± s.d. [2, 9]: 49 h | Patients hospitalized for neutropenic fever ([3]; 47 patients evaluable for haematological toxicity): Seven | CTC grade III/IV neutropenia, % of cycles [3, 10]: 27% | CTC grade III/IV thrombocytopenia, % of cycles [3, 10]: 12% | Cycles (%) with anaemia [3, 11]: 37% | Cycles (%) with leucopenia [3, 11]: 17% | Cycles (%) with neutropenia [3, 11]: 13% | Cycles (%) with thrombocytopenia [3, 11]: 11% | Cycles (%) with anaemia [3, 12]: 31% | Cycles (%) with leucopenia [3, 12]: 23% | Cycles (%) with neutropenia [3, 12]: 20% | Cycles (%) with thrombocytopenia [3, 12]: 6% | Cycles (%) with anaemia [3, 13]: 5% | Cycles (%) with leucopenia [3, 13]: 19% | Cycles (%) with neutropenia [3, 13]: 18% | Cycles (%) with thrombocytopenia [3, 13]: 6% | Cycles (%) with anaemia [3, 14]: 0% | Cycles (%) with leucopenia [3, 14]: 6% | Cycles (%) with neutropenia [3, 14]: 9% | Cycles (%) with thrombocytopenia [3, 14]: 6% | Median (range) nadir haemoglobin ([3]; Cycle 1, n=47): 110(69-147) g l-1 | Median (range) nadir leucocytes ([3]; Cycle 1, n=47): 3.0 (0.1-9.1) x 109 l-1 | Median (range) nadir neutrophils ([3]; Cycle 1, n=47): 1.4 (<0.1-5.8) x 109 l-1 | Median (range) nadir platelets ([3]; Cycle 1, n=47): 178 (8-449) x 109 l-1 | Median (range) nadir platelets ([3]; Cycles 2-6, n=80): 117 (9-372) x 109 l-1 | Median (range) nadir neutrophils ([3]; Cycles 2-6, n=81): 1.7 (< 0.1-6.8) x 109 l-1 | Median (range) nadir haemoglobin ([3]; Cycles 2-6, n=82): 103 (69-153) g l-1 | Median (range) nadir leucocytes ([3]; Cycles 2-6, n=82): 3.0 (0.1-9.8) x 109 l-1 | Median platelet nadir ([3]; cycle 1): 1.78e+11 L⁻¹ | Median platelet nadir ([3]; cycle 2): 1.45e+11 L⁻¹ | Median platelet nadir ([3]; cycle 3): 1.08e+11 L⁻¹ | Median platelet nadir ([3]; cycle 4): 1.06e+11 L⁻¹ | Median platelet nadir ([3]; cycle 5): 9e+10 L⁻¹ | Median platelet nadir ([3]; cycle 6): 1.17e+11 L⁻¹ | Septic death ([3]; day 14 of cycle 2, grade IV neutropenia): one | Day of platelet nadir ([3]; day of cycle): 22 day and 22 (range 7-36) day | Median day of neutrophil nadir ([3]; day of cycle): 22 day and 22 (range 6-36) day | Total number of hospital admissions for haematological toxicity ([3]; excluding admission for blood cell transfusion): eight | Cycles with dose adjustments for haematological toxicity ([3]; in eight patients): 19% | Cycles delayed for haematological toxicity ([3]; in vivo): 29% | Median duration of grade IV neutropenia ([3]; range 1-14): 7 days | Median time to recovery from platelet nadir to > 100 x 109 l-1 ([3]; range 1-20): 7 days | Median time to recovery from neutrophil nadir to > 2 x 109 l-1 ([3]; range 2-22): 7 days | Median duration of grade IV thrombocytopenia ([3]; range 3-19): 11 days | Efficacy in NSCLC and renal cell cancer ([4]; NSCLC (20 evaluable patients) and renal cell cancer (18 evaluable patients)): ineffective | Patients with partial response ([4]; NSCLC patient with retroperitoneal metastases, forty-three patients evaluable for tumour response): One | Patients with progressive disease ([4]; forty-three patients evaluable): Twenty-five | Patients with stable disease ([4]; forty-three patients evaluable): 17 patients | Duration of partial response ([4]; one NSCLC patient): 17 weeks | Maximum-tolerated dose (solid tumour patients): 1.5 mg m-2 | Renal clearance ([5]; in vivo): about 1.8 l h-1 | Urinary excretion of the unchanged drug, % of the administered dose ([5]; urine collection up to 96 h, nine patients): 2% | Effectiveness in solid tumours in animal models [6]: as effective as doxorubicin | Late and prolonged nausea > or = grade II, % of cycles ([7]; 132 cycles): 34% | Vomiting > or = grade II, % of cycles ([7]; 132 cycles): 39% | Cycles with transient elevation of ALAT ([7]; % of cycles): 71% | Cycles with transient elevation of ASAT ([7]; % of cycles): 64% | Percentage of cycles with alopecia ([7]; CTC Grade I): 10% | Percentage of cycles with diarrhoea ([7]; CTC Grade I): 7% | Percentage of cycles with fatigue/malaise ([7]; CTC Grade I): 24% | Percentage of cycles with liver toxicity, ALAT ([7]; CTC Grade I): 37% | Percentage of cycles with liver toxicity, ASAT ([7]; CTC Grade I): 46% | Percentage of cycles with nausea ([7]; CTC Grade I): 43% | Percentage of cycles with stomatitis ([7]; CTC Grade I): 11% | Percentage of cycles with vomiting ([7]; CTC Grade I): 24% | Percentage of cycles with alopecia ([7]; CTC Grade II): 1.5% | Percentage of cycles with diarrhoea ([7]; CTC Grade II): 1% | Percentage of cycles with fatigue/malaise ([7]; CTC Grade II): 22% | Percentage of cycles with liver toxicity, ALAT ([7]; CTC Grade II): 27% | Percentage of cycles with liver toxicity, ASAT ([7]; CTC Grade II): 16% | Percentage of cycles with liver toxicity, bilirubin ([7]; CTC Grade II): 12% | Percentage of cycles with nausea ([7]; CTC Grade II): 27% | Percentage of cycles with stomatitis ([7]; CTC Grade II): 1% | Percentage of cycles with vomiting ([7]; CTC Grade II): 30% | Percentage of cycles with diarrhoea ([7]; CTC Grade III): 1% | Percentage of cycles with fatigue/malaise ([7]; CTC Grade III): 7% | Percentage of cycles with liver toxicity, ALAT ([7]; CTC Grade III): 7% | Percentage of cycles with liver toxicity, ASAT ([7]; CTC Grade III): 2% | Percentage of cycles with liver toxicity, bilirubin ([7]; CTC Grade III): 0% | Percentage of cycles with nausea ([7]; CTC Grade III): 7% | Percentage of cycles with stomatitis ([7]; CTC Grade III): 1% | Percentage of cycles with vomiting ([7]; CTC Grade III): 4% | Percentage of cycles with diarrhoea ([7]; CTC Grade IV): 0% | Percentage of cycles with fatigue/malaise ([7]; CTC Grade IV): 5% | Percentage of cycles with liver toxicity, ALAT ([7]; CTC Grade IV): 0% | Percentage of cycles with liver toxicity, ASAT ([7]; CTC Grade IV): 0% | Percentage of cycles with liver toxicity, bilirubin ([7]; CTC Grade IV): 1% | Percentage of cycles with stomatitis ([7]; CTC Grade IV): 0% | Percentage of cycles with vomiting ([7]; CTC Grade IV): 5% | Fatigue grade I-III, % of cycles ([7]; considered as drug-related): 53% | Alopecia grade I or II, % of cycles ([7]; in vivo): 11% | Cumulative liver toxicity ([7]; in vivo): No cumulative liver toxicity was observed | Cycles with CTC toxicity >= grade I of ALAT ([7]; in vivo): 87 cycles | Cycles with CTC toxicity >= grade I of ASAT ([7]; in vivo): 78 cycles | Cycles with CTC toxicity >= grade I of bilirubin ([7]; in vivo): 15 cycles | Cycles with CTC toxicity >= grade III of ALAT ([7]; in vivo): nine | Cycles with CTC toxicity >= grade III of ASAT ([7]; in vivo): two | Cycles with CTC toxicity >= grade III of bilirubin ([7]; in vivo): one | Grade I-II diarrhoea, % of cycles ([7]; in vivo): 8% | Grade I-II stomatitis, % of cycles ([7]; in vivo): 11% | Local phlebitis at the injection site, renal toxicity, neurotoxicity ([7]; in vivo): Neither local phlebitis at the injection site nor renal or neuro- toxicity were observed | Median day of onset of nausea ([7]; in vivo): 3 (range 1-17) day | Median day of onset of vomiting ([7]; in vivo): 3 (range 1-22) day | Patients hospitalized for nausea/vomiting ([7]; in vivo): Five | Nausea and vomiting grade III-IV, % of cycles ([7]; in vivo, iv): 9% | Day of maximum transient elevations of ASAT and ALAT ([7]; lasting approximately one week): 8 days | Patients with alopecia grade I or II ([7]; only one grade II): Nine | Cycles with nausea [7, 15]: 100 cycles | Cycles with vomiting [7, 15]: 82 cycles | Transient transaminases elevation grade III/IV, % of cycles ([7]; printed '> grade III/IV', 132 cycles): 7% | Median hospitalization duration for nausea/vomiting ([7]; range 1-7): 4 days | Median duration of vomiting ([7]; range 1-28): 3 days | Median duration of nausea ([7]; range 1-38): 7 days | Median day of recovery of ASAT to normal values ([7]; range 8-26): 15 days | Median day of recovery of ALAT to normal values ([7]; range 8-36): 15 days | Patients with left ventricular ejection fraction reduced >= 15% ([8]; 26 patients evaluable for cardiac toxicity): two | Decrease in LVEF ([8]; one patient with head and neck cancer, after three cycles, cumulative dose 4.5 mg m-2): 15% | Cardiotoxicity ([8]; overall conclusion of the study): No clear signs of cardiotoxicity were observed | Decrease in LVEF ([8]; second patient (NSCLC), echocardiography, after four cycles, cumulative dose 6 mg m-2): 17%
